{"source": "patent US4657927A", "about": "“Malonato platinum compounds” (Research Corporation, priority 1983, dated 1987)", "key": {"[1]": {"system": "Sarcoma 180", "assay": "Antitumor activity, solid sarcoma 180 tumor, T/C of tumor weights at day 10 (Table I)", "type": "in vivo, female Swiss white mice", "conditions": "single i.p. injection day 1, slurry in H2O", "procedure": "The compounds of the invention were tested for antitumor activity, i.e., for sensitivity to a planar dsp^2 platinum(II) coordination compound or an octahedral d^2 sp^3 platinum(IV) coordination compound using our standard screening tumor, solid sarcoma 180 tumor in female Swiss white mice, following standard protocols for this testing as set by the National Cancer Institute. (Cancer Chemotherapy Rep., 25 (1962)).\nFor these tests an S 180 tumor taken from a sacrificed mouse was disected free of superfluous tissue and cut under sterile conditions into approximately 10 milligram size pieces. These tissue pieces were then implanted by trocar in the left axillary region, subcutaneously, in new mice. The mice were, on the average, approximately four weeks old and weighed 18-20 grams. Taking day 0 as the day of implant, the animals were sacrificed on day 10. The tumors were excised and weighed and the ratio of the weights of the tumors in mice in the treated animals to the control set of animals was obtained. This ratio, multiplied by 100, is given as the T/C ratio in Table I.\nFor the first set of tests the coordination compound was freshly dissolved in sterile distilled water and injected intraperitoneally on day 1 into each of the test mice. The volume of the injection was usually 1/2 ml. In some cases, in order to get an active dose into the animal where the chemical was not soluble in this amount of solvent, a fine dispersion was prepared of the dose needed for the test. Thus, some of our test results were obtained on animals where a slurry of the compound was injected. These are so noted in Table I below. In addition, for some of the compounds, there was injected about 1 ml of solution, either in one single injection, or in 2 injections given a few hours apart of 1/2 ml each. These injections were initially given in 4 different dose levels for each new compound with 6 mice in each dose level. The tests covered a dose range from a low ineffective dose, to an upper dose level which produced some deaths within the time period of the experiment."}, "[2]": {"assay": "Hydrolysis by U.V./vis spectral and conductivity studies", "type": "physicochemical", "conditions": "recrystallization from boiling water with malonic acid", "description": "*U.V./via spectral and conductivity studies have shown that hydrolysis is negligible."}, "[3]": {"system": "L1210", "assay": "Confirmatory antitumor test at the National Cancer Institute, L1210 (Table IV)", "type": "in vivo, Mice", "conditions": "daily injections days 1-9, i.p.", "description": "Samples of the malonato diammine and malonato ethylene diamine complexes of platinum(II) were submitted to the Drug Research and Development Branch of the National Cancer Institute for screening for antitumor activity against the L1210 tumor in mice. They confirm the activity of the compounds of the invention."}, "[4]": {"system": "Sarcoma 180", "assay": "Large Sarcoma 180 regressions, injection on day 8 (Table II)", "type": "in vivo, female Swiss white mice", "conditions": "single i.p. injection on day 8, H2O solution", "procedure": "In addition to the day 1 injections described above, in a number of case injections were delayed until day 8 of tumor growth. In these cases the tumor was usually at least larger than 1/2 gm, as estimated by palpation. The animals were then injected and observed for a period of approximately 60 days. Activity was measured by the number of animals whose tumors had regressed to the vanishing point, while still allowing the animal to survive for this time period. Such test results are described in TABLE II below."}}, "data": [{"compound": "O=C(O)CC(=O)O.[NH2-].[NH2-].[Pt+2]", "note": "[Malonatodiammineplatinum (II), Malonatodiammineplatinum(II)]", "values": [{"measurement": "No. of Deaths", "setting": "[1]; 10 mg/kg", "result": 0}, {"measurement": "T/C", "setting": "[1]; 10 mg/kg", "result": 76}, {"measurement": "No. of Deaths", "setting": "[1]; 15 mg/kg", "result": 0}, {"measurement": "T/C", "setting": "[1]; 15 mg/kg", "result": 38}, {"measurement": "No. of Deaths", "setting": "[1]; 20 mg/kg", "result": 0}, {"measurement": "T/C", "setting": "[1]; 20 mg/kg", "result": 64}, {"measurement": "No. of Deaths", "setting": "[1]; 25 mg/kg", "result": 0}, {"measurement": "T/C", "setting": "[1]; 25 mg/kg", "result": 31}, {"measurement": "No. of Deaths", "setting": "[1]; 30 mg/kg", "result": "1/6"}, {"measurement": "T/C", "setting": "[1]; 30 mg/kg", "result": 7}, {"measurement": "No. of Deaths", "setting": "[1]; 40 mg/kg", "result": "6/6"}, {"measurement": "No. of Deaths", "setting": "[1]; 50 mg/kg", "result": "5/6"}, {"measurement": "T/C", "setting": "[1]; 50 mg/kg", "result": 1}, {"measurement": "No. of Deaths", "setting": "[1]; 60 mg/kg", "result": "6/6"}, {"measurement": "hydrolysis", "setting": "[2]", "result": "negligible"}, {"measurement": "% Increase in Lifespan", "setting": "[3]; 12.5 mg/kg", "result": 115, "unit": "%"}, {"measurement": "% Increase in Lifespan", "setting": "[3]; 25 mg/kg", "result": 133, "unit": "%"}, {"measurement": "% Increase in Lifespan", "setting": "[3]; 50 mg/kg", "result": 163, "unit": "%"}, {"measurement": "Deaths", "setting": "[4]; 14 mg/kg", "result": 4}, {"measurement": "Total Number of Regressions", "setting": "[4]; 14 mg/kg", "result": 2}, {"measurement": "Deaths", "setting": "[4]; 16 mg/kg", "result": 3}, {"measurement": "Total Number of Regressions", "setting": "[4]; 16 mg/kg", "result": 3}, {"measurement": "Deaths", "setting": "[4]; 18 mg/kg", "result": 2}, {"measurement": "Total Number of Regressions", "setting": "[4]; 18 mg/kg", "result": 4}, {"measurement": "Deaths", "setting": "[4]; 20 mg/kg", "result": 1}, {"measurement": "Total Number of Regressions", "setting": "[4]; 20 mg/kg", "result": 5}]}]}
